In US8148391B2 (Cephalon, Inc., priority 2006, dated 2012):

Legend:
[1] = biological target: T1, baculovirus-expressed ALK (Homo sapiens, UniProt Q9UM73); experiment: ALK Kinase Assay (ELISA-type, time-resolved fluorescence); type: biochemical; conditions: 1 μM ATP (Km level); read-out: ALK Activity (ALK Kinase Inhibition, IC50)
T1 construct: host or cells: baculovirus expression system
Summary of the method: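 Wells were coated with phospholipase C-γ at 10 μg/mL in Tris-buffered saline. Adding 30 ng/ml enzyme started the reaction, which ran at 37° C for 15 minutes before Eu-N1 PT66 antibody detection. Percent inhibition versus log10 concentration gave IC50 by variable-slope fit.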

[2] = biological target: T2, c-Met (cytoplasmic domain) (Homo sapiens, UniProt P08581); experiment: c-Met Kinase Assay (same methods as for ALK, with modifications); type: biochemical; conditions: 1 μM ATP (Km level); read-out: cMet Activity (c-Met Kinase Inhibition, IC50)
T2 construct: 10 ng/mL c-Met (cytoplasmic domain, Invitrogen Corporation #PV3143); purchased Invitrogen Corporation PV3143
Summary of the method: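 IC50 values were fitted by variable-slope sigmoidal regression of percent inhibition against log compound concentration. Phosphorylation was read with Eu-N1 PT66 antibody after a 15 min, 37 °C reaction. The reaction was initiated with 10 ng/mL c-Met cytoplasmic domain on wells coated with 10 μg/mL PLC-γ in TBS.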

T2 sequence (P08581 956-1390 limits assumed): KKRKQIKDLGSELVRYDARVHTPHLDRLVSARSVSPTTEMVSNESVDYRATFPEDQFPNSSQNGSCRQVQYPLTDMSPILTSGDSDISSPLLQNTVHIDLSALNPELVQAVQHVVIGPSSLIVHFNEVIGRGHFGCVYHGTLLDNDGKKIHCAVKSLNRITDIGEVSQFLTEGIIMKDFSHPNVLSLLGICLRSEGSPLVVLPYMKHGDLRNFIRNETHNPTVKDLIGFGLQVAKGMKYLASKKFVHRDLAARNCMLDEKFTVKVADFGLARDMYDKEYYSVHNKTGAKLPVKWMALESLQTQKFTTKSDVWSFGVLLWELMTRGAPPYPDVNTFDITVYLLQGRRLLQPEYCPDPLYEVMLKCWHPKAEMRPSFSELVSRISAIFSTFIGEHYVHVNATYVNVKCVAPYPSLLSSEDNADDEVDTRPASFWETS
T1 sequence (Q9UM73 19-1620): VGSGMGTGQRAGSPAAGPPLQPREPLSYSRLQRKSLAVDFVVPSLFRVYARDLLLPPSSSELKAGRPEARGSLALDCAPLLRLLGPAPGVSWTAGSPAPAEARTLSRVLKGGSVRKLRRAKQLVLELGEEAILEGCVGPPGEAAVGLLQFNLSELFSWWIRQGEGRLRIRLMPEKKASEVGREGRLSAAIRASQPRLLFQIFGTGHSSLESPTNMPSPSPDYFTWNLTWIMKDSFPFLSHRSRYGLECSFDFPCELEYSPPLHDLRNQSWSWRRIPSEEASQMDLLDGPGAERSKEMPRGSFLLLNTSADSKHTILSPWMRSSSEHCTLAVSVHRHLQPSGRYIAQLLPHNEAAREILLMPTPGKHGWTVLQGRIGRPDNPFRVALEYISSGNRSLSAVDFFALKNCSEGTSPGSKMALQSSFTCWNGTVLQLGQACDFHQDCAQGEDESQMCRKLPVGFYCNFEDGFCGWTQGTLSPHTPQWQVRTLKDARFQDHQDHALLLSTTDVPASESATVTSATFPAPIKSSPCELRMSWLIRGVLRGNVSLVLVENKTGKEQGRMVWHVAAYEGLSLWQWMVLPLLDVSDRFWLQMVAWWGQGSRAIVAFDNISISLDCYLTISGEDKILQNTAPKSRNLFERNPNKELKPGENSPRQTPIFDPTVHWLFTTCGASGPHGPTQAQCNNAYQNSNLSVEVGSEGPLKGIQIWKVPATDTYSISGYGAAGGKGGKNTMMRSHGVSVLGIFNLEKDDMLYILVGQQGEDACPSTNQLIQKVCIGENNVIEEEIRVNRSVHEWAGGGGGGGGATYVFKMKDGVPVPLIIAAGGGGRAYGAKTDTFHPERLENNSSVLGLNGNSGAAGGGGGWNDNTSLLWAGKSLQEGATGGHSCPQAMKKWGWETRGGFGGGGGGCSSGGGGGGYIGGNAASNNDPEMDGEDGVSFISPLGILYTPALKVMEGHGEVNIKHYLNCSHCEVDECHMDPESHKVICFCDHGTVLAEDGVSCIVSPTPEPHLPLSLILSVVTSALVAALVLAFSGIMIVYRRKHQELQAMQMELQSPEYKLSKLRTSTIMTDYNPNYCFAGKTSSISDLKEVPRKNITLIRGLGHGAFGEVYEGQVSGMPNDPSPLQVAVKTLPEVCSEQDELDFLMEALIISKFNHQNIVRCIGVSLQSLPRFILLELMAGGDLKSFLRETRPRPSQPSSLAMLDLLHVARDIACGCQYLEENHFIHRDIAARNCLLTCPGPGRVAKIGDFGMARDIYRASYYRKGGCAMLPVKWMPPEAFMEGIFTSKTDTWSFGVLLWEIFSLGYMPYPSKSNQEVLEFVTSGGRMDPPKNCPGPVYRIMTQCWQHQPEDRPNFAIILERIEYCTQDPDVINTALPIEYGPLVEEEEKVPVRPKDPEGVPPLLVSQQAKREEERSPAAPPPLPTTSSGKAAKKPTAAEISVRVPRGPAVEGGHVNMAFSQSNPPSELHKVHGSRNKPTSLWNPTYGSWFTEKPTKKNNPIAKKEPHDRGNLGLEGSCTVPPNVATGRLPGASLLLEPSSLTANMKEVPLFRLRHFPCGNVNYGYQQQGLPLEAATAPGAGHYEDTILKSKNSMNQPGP

Structure (SMILES) | IC50 [1] | IC50 [2]
CC1(C)CCC(=O)Nc2ccc(Nc3ncc(Cl)c(Nc4ccc(N5CCOCC5)cc4-n4cccn4)n3)cc21 [Example 627, 7-[5-Chloro-4-(4-morpholin-4-yl-2-pyrazol-1-yl-phenylamino)-pyrimidin-2-ylamino]-5,5-dimethyl-1,3,4,5-tetrahydro-benzo[b]azepin-2-one] | < 0.1 µM | 1 to 10 µM
CN1CCN(c2ccc(Nc3nc(Nc4ccc5c(c4)C(C)(C)CCC(=O)N5)ncc3Cl)c(-n3cccn3)c2)CC1 [Example 628, 7-{5-Chloro-4-[4-(4-methyl-piperazin-1-yl)-2-pyrazol-1-yl-phenylamino]-pyrimidin-2-ylamino}-5,5-dimethyl-1,3,4,5-tetrahydro-benzo[b]azepin-2-one] | < 0.1 µM | 1 to 10 µM
CC1(C)CCC(=O)Nc2ccc(Nc3ncc(Cl)c(Nc4ccc(N5CCC(C(=O)O)CC5)cc4-n4cccn4)n3)cc21 [Example 629, 1-{4-[5-Chloro-2-(5,5-dimethyl-2-oxo-2,3,4,5-tetrahydro-1H-benzo[b]azepin-7-ylamino)-pyrimidin-4-ylamino]-3-pyrazol-1-yl-phenyl}-piperidine-4-carboxylic acid] | < 0.1 µM | 1 to 10 µM
COc1cc2c(cc1Nc1ncc(Cl)c(Nc3ccc(N4CCC(C(=O)O)CC4)cc3-n3cccn3)n1)CCN(CC(=O)N(C)C)CC2 [Example 630, 1-{4-[5-Chloro-2-(3-dimethylcarbamoylmethyl-8-methoxy-2,3,4,5-tetrahydro-1H-benzo[d]azepin-7-ylamino)-pyrimidin-4-ylamino]-3-pyrazol-1-yl-phenyl}-piperidine-4-carboxylic acid] | < 0.1 µM | > 10 µM
COc1cc2c(cc1Nc1ncc(Cl)c(Nc3ccc(N(C)C)cc3-n3cccn3)n1)CCN(CC(=O)N(C)C)CC2 [Example 631, 2-{7-[5-Chloro-4-(4-dimethylamino-2-pyrazol-1-yl-phenylamino)-pyrimidin-2-ylamino]-8-methoxy-1,2,4,5-tetrahydro-benzo[d]azepin-3-yl}-N,N-dimethyl-acetamide] | < 0.1 µM | > 10 µM
COc1c(Nc2ncc(Cl)c(N[C@H]3[C@@H](C(N)=O)[C@@H]4C=C[C@H]3C4)n2)ccc2c1C(=O)C[C@@H](NC(C)=O)CC2 [Example 632, (1S,2S,3R,4R)-3-[2-((S)-7-Acetylamino-1-methoxy-9-oxo-6,7,8,9-tetrahydro-5H-benzocyclohepten-2-ylamino)-5-chloro-pyrimidin-4-ylamino]-bicyclo[2.2.1]hept-5-ene-2-carboxylic acid amide] | 0.1 to 1 µM | > 10 µM
COc1ccc(Nc2nc(Nc3cc4c(cc3OC)CCN(C(=O)C3COCCO3)CC4)ncc2Cl)c(-n2cccn2)c1 (stereo not drawn) [Example 633, {7-[5-Chloro-4-(4-methoxy-2-pyrazol-1-yl-phenylamino)-pyrimidin-2-ylamino]-8-methoxy-1,2,4,5-tetrahydro-benzo[d]azepin-3-yl}-[1,4]dioxan-2-yl-methanone] | < 0.1 µM | > 10 µM
COc1cc2c(cc1Nc1ncc(Cl)c(Nc3ccccc3S(=O)(=O)N(C)C)n1)CCN(C(=O)C1COCCO1)CC2 (stereo not drawn) [Example 634, 2-{5-Chloro-2-[3-([1,4]dioxane-2-carbonyl)-8-methoxy-2,3,4,5-tetrahydro-1H-benzo[d]azepin-7-ylamino]-pyrimidin-4-ylamino}-N,N-dimethyl-benzenesulfonamide] | < 0.1 µM | > 10 µM
COc1cc2c(cc1Nc1ncc(Cl)c(N[C@H]3[C@@H](C(N)=O)[C@@H]4C=C[C@H]3C4)n1)CCN(C(=O)C1COCCO1)CC2 (stereo partly drawn) [Example 635, (1S,2S,3R,4R)-3-{5-Chloro-2-[3-([1,4]dioxane-2-carbonyl)-8-methoxy-2,3,4,5-tetrahydro-1H-benzo[d]azepin-7-ylamino]-pyrimidin-4-ylamino}-bicyclo[2.2.1]hept-5-ene-2-carboxylic acid amide] | < 0.1 µM | > 10 µM
COc1ccc(Nc2nc(Nc3cc4c(cc3OC)CCN(CC3COCCO3)CC4)ncc2Cl)c(-n2cccn2)c1 (stereo not drawn) [Example 636, 5-Chloro-N*2*-(3-[1,4]dioxan-2-ylmethyl-8-methoxy-2,3,4,5-tetrahydro-1H-benzo[d]azepin-7-yl)-N*4*-(4-methoxy-2-pyrazol-1-yl-phenyl)-pyrimidine-2,4-diamine] | < 0.1 µM | > 10 µM
COc1cc2c(cc1Nc1ncc(Cl)c(Nc3ccccc3S(=O)(=O)N(C)C)n1)CCN(CC1COCCO1)CC2 (stereo not drawn) [Example 637, 2-[5-Chloro-2-(3-[1,4]dioxan-2-ylmethyl-8-methoxy-2,3,4,5-tetrahydro-1H-benzo[d]azepin-7-ylamino)-pyrimidin-4-ylamino]-N,N-dimethyl-benzenesulfonamide] | < 0.1 µM | 1 to 10 µM
CN(C)S(=O)(=O)c1ccccc1Nc1nc(Nc2ccc3c(c2)CCN(C(=O)C2COCCO2)CC3)ncc1Cl (stereo not drawn) [Example 638, 2-{5-Chloro-2-[3-([1,4]dioxane-2-carbonyl)-2,3,4,5-tetrahydro-1H-benzo[d]azepin-7-ylamino]-pyrimidin-4-ylamino}-N,N-dimethyl-benzenesulfonamide] | < 0.1 µM | < 0.1 µM
CNC(=O)c1cccc(F)c1Nc1nc(Nc2ccc3c(c2)CCN(C(=O)C2COCCO2)CC3)ncc1Cl (stereo not drawn) [Example 639, 2-{5-Chloro-2-[3-([1,4]dioxane-2-carbonyl)-2,3,4,5-tetrahydro-1H-benzo[d]azepin-7-ylamino]-pyrimidin-4-ylamino}-3-fluoro-N-methyl-benzamide] | < 0.1 µM | < 0.1 µM
C#CCNC(=O)c1cccc(F)c1Nc1nc(Nc2ccc3c(c2)CCN(C(=O)C2COCCO2)CC3)ncc1Cl (stereo not drawn) [Example 640, 2-{5-Chloro-2-[3-([1,4]dioxane-2-carbonyl)-2,3,4,5-tetrahydro-1H-benzo[d]azepin-7-ylamino]-pyrimidin-4-ylamino}-3-fluoro-N-prop-2-ynyl-benzamide] | 0.1 to 1 µM | < 0.1 µM
CN(C)S(=O)(=O)c1ccccc1Nc1nc(Nc2ccc3c(c2)CCN(CC2COCCO2)CC3)ncc1Cl (stereo not drawn) [Example 641, 2-[5-Chloro-2-(3-[1,4]dioxan-2-ylmethyl-2,3,4,5-tetrahydro-1H-benzo[d]azepin-7-ylamino)-pyrimidin-4-ylamino]-N,N-dimethyl-benzenesulfonamide] | < 0.1 µM | < 0.1 µM
COc1ccc(Nc2nc(Nc3ccc4c(c3)CCN(CC3COCCO3)CC4)ncc2Cl)c(-n2cccn2)c1 (stereo not drawn) [Example 642, 5-Chloro-N*2*-(3-[1,4]dioxan-2-ylmethyl-2,3,4,5-tetrahydro-1H-benzo[d]azepin-7-yl)-N*4*-(4-methoxy-2-pyrazol-1-yl-phenyl)-pyrimidine-2,4-diamine] | < 0.1 µM | 0.1 to 1 µM
CNC(=O)c1ccccc1Nc1nc(Nc2ccc3c(c2)CCC(NCC(F)(F)F)CC3)ncc1Cl (stereo not drawn) [Example 651, 2-{5-Chloro-2-[7-(2,2,2-trifluoro-ethylamino)-6,7,8,9-tetrahydro-5H-benzocyclohepten-2-ylamino]-pyrimidin-4-ylamino}-N-methyl-benzamide] | < 0.1 µM | < 0.1 µM
NC(=O)[C@@H]1CCCC[C@H]1Nc1nc(Nc2ccc3c(c2)CCC(NCC(F)(F)F)CC3)ncc1Cl (stereo partly drawn) [Example 653] | < 0.1 µM | 0.1 to 1 µM
NC(=O)[C@@H]1[C@H]2CC[C@H](C2)[C@@H]1Nc1nc(Nc2ccc3c(c2)CCC(NCC(F)(F)F)CC3)ncc1Cl (stereo partly drawn) [Example 654, (1S,2R,3S,4R)-3-{5-Chloro-2-[7-(2,2,2-trifluoro-ethylamino)-6,7,8,9-tetrahydro-5H-benzocyclohepten-2-ylamino]-pyrimidin-4-ylamino}-bicyclo[2.2.1]heptane-2-carboxylic acid amide] | < 0.1 µM | 0.1 to 1 µM
Cn1ccnc1-c1ccccc1Nc1nc(Nc2ccc3c(c2)CCC(NCC(F)(F)F)CC3)ncc1Cl (stereo not drawn) [Example 655, 5-Chloro-N*4*-[2-(1-methyl-1H-imidazol-2-yl)-phenyl]-N*2*-[7-(2,2,2-trifluoro-ethylamino)-6,7,8,9-tetrahydro-5H-benzocyclohepten-2-yl]-pyrimidine-2,4-diamine] | < 0.1 µM | 0.1 to 1 µM
CS(=O)(=O)N[C@@H]1CCCC[C@H]1Nc1nc(Nc2ccc3c(c2)CCC(NCC(F)(F)F)CC3)ncc1Cl (stereo partly drawn) [Example 656, N-((1R,2R)-2-{5-Chloro-2-[7-(2,2,2-trifluoro-ethylamino)-6,7,8,9-tetrahydro-5H-benzocyclohepten-2-ylamino]-pyrimidin-4-ylamino}-cyclohexyl)-methanesulfonamide] | < 0.1 µM | 0.1 to 1 µM
Cc1cccnc1-c1ccccc1Nc1nc(Nc2ccc3c(c2)CCC(NCC(F)(F)F)CC3)ncc1Cl (stereo not drawn) [Example 657, 5-Chloro-N*4*-[2-(3-methyl-pyridin-2-yl)-phenyl]-N*2*-[7-(2,2,2-trifluoro-ethylamino)-6,7,8,9-tetrahydro-5H-benzocyclohepten-2-yl]-pyrimidine-2,4-diamine] | 0.1 to 1 µM | > 10 µM
COc1ccccc1Nc1nc(Nc2ccc3c(c2)CCC(NCC(F)(F)F)CC3)ncc1Cl (stereo not drawn) [Example 658, 5-Chloro-N*4*-(2-methoxy-phenyl)-N*2*-[7-(2,2,2-trifluoro-ethylamino)-6,7,8,9-tetrahydro-5H-benzocyclohepten-2-yl]-pyrimidine-2,4-diamine] | 0.1 to 1 µM | > 10 µM
COc1cc(N2CCOCC2)ccc1Nc1nc(Nc2ccc3c(c2)CCC(NCC(F)F)CC3)ncc1Cl (stereo not drawn) [Example 659, 5-Chloro-N*2*-[7-(2,2-difluoro-ethylamino)-6,7,8,9-tetrahydro-5H-benzocyclohepten-2-yl]-N*4*-(2-methoxy-4-morpholin-4-yl-phenyl)-pyrimidine-2,4-diamine] | < 0.1 µM | > 10 µM
